What was measured:
[1] = In vivo SPECT-CT imaging after intravenous tail vein injection of 201Tl; set-up: species or system CBA/CaJ mice
Procedure: To test whether or not 201Tl can pass through the cochlear intrastrial fluid blood barrier, so as to image K^+ in a bony structure like the cochlea using SPECT techniques, in vivo experiments were performed with CBA/CaJ mice. Young adult mice were injected with TlCl radioactive solution intravenously with a dose of ˜400 μCi/animal in the tail vein. The Siemens Inveon® multimodality microPET/SPECT/CT platform was used (mouse brain pinhole collimator with a total of 12 projections) to image the brain, cochlea and whole body. CT imaging was also carried out for anatomical referencing. […] One animal was imaged for five continuous days, and as expected, the SPECT signal decreased over that time period in the cochlea and other body parts.
The region of interest (ROI) was drawn for the cochlea using anatomical images from the CT scans. Similarly, radiation signals (mean image intensity) from the two sides (left and right cochleae) were equal (FIG. 4b), indicating symmetrical absorption of the ^201Tl for the peripheral auditory system (cochlea). […] This observation (^201Tl maximum accumulation in the kidney) was consistent with the reported literature as ^201Tl is known to maximally accumulate there 17,18
After baseline phantom in vitro experiments were completed, in vivo imaging experiments were conducted using young adult CBA/CaJ mice (2-3 months old, n=6, 3 females and 3 males) to determine whether 201Tl can pass through the cochlear intrastrial fluid/blood barrier and if the bony cochlea can be imaged using SPECT. Each mouse was injected with approximately 400 μCi ^201Tl radiation into tail veins through a catheter. Similar to the in vitro phantom experiments, a total of 12 projections over a 360 arc were used to collect the images. During the imaging data collection, animals were under gas anesthesia (1-2% isoflurane) in an air-warmed imaging chamber (Harvard Apparatus, Cambridge, MA) to keep body temperature constant at 37° C., and the breathing rate and pattern were continuously monitored. For anatomical referencing of the cochlea, CT imaging was also conducted in conjunction with SPECT. The region of Interest (ROI) was drawn with the help of the CT referencing. Images were reconstructed using maximum-likely-hood expectation maximization (MLEM) algorithm, and finally, 3-D images were reconstructed with scattering and attenuation corrections.

[2] = Ex vivo SPECT-CT imaging and radioactivity measurements (gamma spectroscopy) of dissected cochleae and body tissues; format: in vivo, CBA/CaJ mice
Procedure: For further confirmation, a pair of cochleae from a single mouse were dissected and ex vivo measurements (SPECT-CT image and radioactivity measurements-gamma spectroscopy) were carried out. […] Mean intensity and total photons were calculated from both the cochleae SPECT images. […] Moreover, energy spectra were measured using a BioDEx ion chamber and both cochleae had the same spectra, with the peak energy around 68 KeV—same as ^201Tl energy peak (FIG. 6e). These ex vivo measurements further confirm the equal distribution of ^201Tl for both inner ears.
In addition, the radiation signal was measured from various body parts, in comparison to the cochlea. The measurements were calculated per gm of tissue (specific activity) to make comparisons among various tissues and specific activities were further normalized with brain specific activity.
At the end of the imaging session, animals were sacrificed and ex vivo experiments were carried out in which radiation signals were measured from various body regions, including the brain and cochlea. A pair of cochleae were dissected and ex vivo measurements were done using both SPECT-CT imaging as well as radioactivity measurements (BioDex 500 ion chamber; gamma spectroscopy). Images were reconstructed from SPECT-CT data as per the same algorithms and protocols used for the in-vivo experiments.

[Cl][201Tl] [^201Tl, Thallium-201]
Sex difference in cochlear SPECT signal (mean image intensity) ([1]; 3 males vs 3 females): no sex difference | Time after injection at which SPECT radiation signals were observed from the cochlea ([1]; first scan after i.v. injection): within minutes | Radiation signals (mean image intensity), left vs right cochleae ([1]; in vivo SPECT): equal | Average cochlear SPECT signal relative to brain signal ([1]; in vivo SPECT, ROI drawn with CT, ~400 μCi/animal i.v. tail vein): about two | Entry of the radiotracer into the bony cochlea ([1]; in vivo SPECT-CT of mouse cochlea): can enter the bony cochlea | Change of SPECT signal in the cochlea and other body parts over time ([1]; one animal imaged for five continuous days): decreased | Site of maximum accumulation, whole body SPECT imaging ([1]; whole body SPECT, ~400 μCi/animal i.v.): kidney | Mean intensity and total photons, cochlea 1 vs cochlea 2 ([2]; ex vivo SPECT-CT of a dissected pair of cochleae from a single mouse): no quantitative difference | Specific activity (per gm of tissue, normalized to brain) of the cochlea compared with other body parts ([2]; ex vivo radioactivity measurements): highest signal among most body parts, except kidney | Cochlear radioactivity signal relative to brain ([2]; ex vivo, gamma spectroscopy of body tissues): 2.2 times

Reference: patent US12433549B1, “Molecular imaging of the cochlea” (University of South Florida, priority 2023, dated 2025)
